In BindingDB's records for doi:10.1002/cbic.201300770 (Northeast Ohio Medial University, 2014) one finds IC50 data, which are given here for 2 molecules.

Each structure is given as a SMILES string. pIC50: −log10 of the molar value.

In general, pIC50 refers to the negative decadic logarithm of the IC50, by convention in mol/L. A lower pIC50 goes with a large IC50.

The target in test [1] is T1, Amine oxidase [flavin-containing] B (Homo sapiens, UniProt P27338).
T1 sequence (P27338 whole entry): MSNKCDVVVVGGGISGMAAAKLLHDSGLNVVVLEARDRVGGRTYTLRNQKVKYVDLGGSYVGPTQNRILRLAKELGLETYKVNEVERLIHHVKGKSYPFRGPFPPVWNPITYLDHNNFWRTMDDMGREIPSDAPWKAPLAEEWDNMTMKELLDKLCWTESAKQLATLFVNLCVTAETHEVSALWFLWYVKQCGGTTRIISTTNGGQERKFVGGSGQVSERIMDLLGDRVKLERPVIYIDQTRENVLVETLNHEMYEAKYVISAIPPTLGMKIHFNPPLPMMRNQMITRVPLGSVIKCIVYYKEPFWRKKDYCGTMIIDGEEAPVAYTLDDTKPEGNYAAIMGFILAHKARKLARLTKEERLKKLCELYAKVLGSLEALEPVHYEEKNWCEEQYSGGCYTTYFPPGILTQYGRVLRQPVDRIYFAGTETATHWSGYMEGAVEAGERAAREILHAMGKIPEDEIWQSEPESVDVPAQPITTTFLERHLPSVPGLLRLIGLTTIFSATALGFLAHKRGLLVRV
As to the kind of experiment: MAO Enzyme Assays. The settings on record: pH 7.4. How it is done:
(§1) The buffer system used was a 0.1 M phosphate buffer (pH 7.4). The assays were carried out in a fluorescent 96-well plate. The final concentrations of MAO-A and MAO-B were 6 µg/mL and 15 µg/mL, respectively. The final concentration of kynuramine was 40 µM for MAO-A or 20 µM for MAO-B. The compounds (10 mM stock solution in DMSO; less than 2% (v/v) final concentration of DMSO in the assay) were incubated with MAO and the substrate for 20 min, and quenched with the addition of 2 N NaOH.

For test [2], the target named is T2, Amine oxidase [flavin-containing] A (Homo sapiens, UniProt P21397).
T2 sequence (P21397 whole entry): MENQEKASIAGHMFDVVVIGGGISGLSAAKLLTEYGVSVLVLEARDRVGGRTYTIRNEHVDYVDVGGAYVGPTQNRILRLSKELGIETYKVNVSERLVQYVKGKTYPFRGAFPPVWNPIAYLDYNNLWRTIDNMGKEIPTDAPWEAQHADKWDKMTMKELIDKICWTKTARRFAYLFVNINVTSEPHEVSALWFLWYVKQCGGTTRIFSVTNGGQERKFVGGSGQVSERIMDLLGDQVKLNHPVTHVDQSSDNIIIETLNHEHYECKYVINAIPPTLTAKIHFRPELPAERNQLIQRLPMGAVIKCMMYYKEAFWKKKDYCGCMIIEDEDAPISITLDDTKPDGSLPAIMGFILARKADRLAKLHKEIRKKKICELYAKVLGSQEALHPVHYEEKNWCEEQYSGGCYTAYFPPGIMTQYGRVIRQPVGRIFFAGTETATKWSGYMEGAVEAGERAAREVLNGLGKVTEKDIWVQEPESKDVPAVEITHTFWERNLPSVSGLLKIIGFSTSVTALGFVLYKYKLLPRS
As to the kind of experiment: MAO Enzyme Assays. The following applies: pH 7.4. The method, then:
as §1

In the case of `CN(C)c1ccc(/N=N/c2ccccc2)cc1` [(E)-N,N-dimethyl-4-(phenyldiazenyl)aniline], the figures for the pIC50 in test [1] and in test [2] were 7.84 and 5.33, respectively.

With `c1ccc(/N=N/c2ccccc2)cc1` [(E)-1,2-diphenyldiazene], the pIC50 in test [1] is 5.58; in test [2] it was 4.64.
